Experimental findings from US10875875B2, “Propionic acid derivatives and methods of use thereof” (Aviara Pharmaceuticals, Inc., priority 2017, dated 2020) are described below.

The assay concerns the target α4β1 (Homo sapiens, UniProt P05556+P13612). In words: α4β1 integrin inhibition, IC50. The format is binding. To be noted: read-out: α4β1 IC50.

SMILES strings stand for the structures.

α4β1, sequence (P13612 34-1032): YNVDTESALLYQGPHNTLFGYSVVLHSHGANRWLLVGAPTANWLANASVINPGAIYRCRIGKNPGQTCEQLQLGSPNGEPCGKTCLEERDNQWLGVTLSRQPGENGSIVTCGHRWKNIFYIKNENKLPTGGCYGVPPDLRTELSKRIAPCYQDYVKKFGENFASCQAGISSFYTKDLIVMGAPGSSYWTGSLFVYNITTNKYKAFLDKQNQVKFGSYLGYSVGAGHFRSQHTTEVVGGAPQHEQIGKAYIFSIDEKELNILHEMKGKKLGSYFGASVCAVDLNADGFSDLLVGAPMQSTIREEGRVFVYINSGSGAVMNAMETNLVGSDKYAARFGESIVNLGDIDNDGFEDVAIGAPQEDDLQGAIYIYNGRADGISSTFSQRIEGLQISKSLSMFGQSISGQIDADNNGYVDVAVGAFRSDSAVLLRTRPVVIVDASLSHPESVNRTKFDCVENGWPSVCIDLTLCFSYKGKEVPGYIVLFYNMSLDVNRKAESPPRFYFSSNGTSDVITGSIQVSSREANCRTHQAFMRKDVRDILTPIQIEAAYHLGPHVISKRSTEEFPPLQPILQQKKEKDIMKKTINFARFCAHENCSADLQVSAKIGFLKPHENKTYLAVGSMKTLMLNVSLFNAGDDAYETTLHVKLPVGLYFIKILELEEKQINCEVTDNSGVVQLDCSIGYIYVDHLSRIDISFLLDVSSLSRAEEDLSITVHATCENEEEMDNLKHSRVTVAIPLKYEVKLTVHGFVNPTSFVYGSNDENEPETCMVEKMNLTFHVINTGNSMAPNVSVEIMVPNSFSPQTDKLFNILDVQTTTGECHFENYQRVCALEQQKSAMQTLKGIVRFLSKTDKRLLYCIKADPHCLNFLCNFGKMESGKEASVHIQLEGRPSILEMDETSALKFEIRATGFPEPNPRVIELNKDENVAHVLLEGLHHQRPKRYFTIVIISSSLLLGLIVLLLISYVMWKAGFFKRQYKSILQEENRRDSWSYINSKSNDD
α4β1, sequence (P05556 21-798): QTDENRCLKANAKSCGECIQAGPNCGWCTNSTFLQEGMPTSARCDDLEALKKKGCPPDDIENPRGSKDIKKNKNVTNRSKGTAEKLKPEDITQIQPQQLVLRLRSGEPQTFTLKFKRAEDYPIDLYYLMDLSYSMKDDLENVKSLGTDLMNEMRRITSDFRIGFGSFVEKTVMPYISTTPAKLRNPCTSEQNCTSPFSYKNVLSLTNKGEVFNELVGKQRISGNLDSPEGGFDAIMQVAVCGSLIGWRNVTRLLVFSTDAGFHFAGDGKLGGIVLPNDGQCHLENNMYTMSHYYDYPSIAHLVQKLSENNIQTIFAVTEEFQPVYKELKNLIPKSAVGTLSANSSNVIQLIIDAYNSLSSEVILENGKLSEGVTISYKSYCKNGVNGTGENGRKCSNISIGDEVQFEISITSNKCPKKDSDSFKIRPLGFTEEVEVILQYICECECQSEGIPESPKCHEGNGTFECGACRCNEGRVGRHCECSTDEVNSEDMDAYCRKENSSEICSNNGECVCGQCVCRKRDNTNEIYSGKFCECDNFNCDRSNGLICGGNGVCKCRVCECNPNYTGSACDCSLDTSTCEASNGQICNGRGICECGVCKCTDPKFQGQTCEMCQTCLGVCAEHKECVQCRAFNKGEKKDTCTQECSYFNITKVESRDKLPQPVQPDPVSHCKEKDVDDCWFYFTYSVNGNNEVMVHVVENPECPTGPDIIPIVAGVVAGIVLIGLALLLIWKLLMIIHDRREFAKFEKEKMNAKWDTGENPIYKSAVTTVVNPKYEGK

`COc1cccc(-c2cccc([C@H](CC(=O)O)NC(=O)Nc3c(O)c(C)cn(C)c3=O)c2)c1OC` [1-504, sodium (S)-3-(2′,3′-dimethoxybiphenyl-3-yl)-3-(3-(1,5-dimethyl-4-oxido-2-oxo-1,2-dihydropyridin-3-yl)ureido)propanoate]: the IC50 – broadly, the concentration that gives 50% inhibition – was less than 20 nM.
The figure for `COc1cccc(-c2ccc(F)c([C@H](CC(=O)O)NC(=O)Nc3c(O)cc(C)n(C)c3=O)c2)c1` [1-603, sodium (S)-3-(3-(1,6-dimethyl-4-oxido-2-oxo-1,2-dihydropyridin-3-yl)ureido)-3-(4-fluoro-3′-methoxybiphenyl-3-yl)propanoate] is less than 20 nM.
In the case of `COc1cccc(-c2csc([C@H](CC(=O)O)NC(=O)Nc3c(O)ccn(C)c3=O)c2)c1` [1-528, sodium (S)-3-(4-(3-methoxyphenyl)thiophen-2-yl)-3-(3-(1-methyl-4-oxido-2-oxo-1,2-dihydropyridin-3-yl)ureido)propanoate], the IC50 was less than 20 nM.
As for `Cc1ccc([C@H](CC(=O)O)NC(=O)Nc2c(O)ccn(C)c2=O)cc1-c1cccc(OC(F)(F)F)c1` [1-576, sodium (S)-3-(6-methyl-3′-(trifluoromethoxy)biphenyl-3-yl)-3-(3-(1-methyl-4-oxido-2-oxo-1,2-dihydropyridin-3-yl)ureido)propanoate], the IC50 is less than 20 nM.
For `Cc1noc(C)c1-c1ccc([C@H](CC(=O)O)NC(=O)Nc2c(O)ccn(C)c2=O)s1` [1-608, sodium (S)-3-(5-(3,5-dimethylisoxazol-4-yl)thiophen-2-yl)-3-(3-(1-methyl-4-oxido-2-oxo-1,2-dihydropyridin-3-yl)ureido)propanoate] the value was less than 20 nM; for `Cc1cn(C)c(=O)c(NC(=O)NC(CC(=O)O)c2cccc(-c3ccc(Cl)c(Cl)c3)c2)c1O` (stereo not shown) [1-481, sodium 3-(3′,4′-dichlorobiphenyl-3-yl)-3-(3-(1,5-dimethyl-4-oxido-2-oxo-1,2-dihydropyridin-3-yl)ureido)propanoate], less than 200 nM; for `COc1cccc(-c2cc([C@H](CC(=O)O)NC(=O)Nc3c(O)ccn(C)c3=O)ccc2F)c1` [1-547, sodium (S)-3-(6-fluoro-3′-methoxybiphenyl-3-yl)-3-(3-(1-methyl-4-oxido-2-oxo-1,2-dihydropyridin-3-yl)ureido)propanoate], less than 20 nM.
The figure for `Cc1cn(C)c(=O)c(NC(=O)N[C@@H](CC(=O)O)c2ccc(-c3ccccc3)s2)c1O` [1-628, sodium (S)-3-(3-(1,5-dimethyl-4-oxido-2-oxo-1,2-dihydropyridin-3-yl)ureido)-3-(5-phenylthiophen-2-yl)propanoate] is less than 200 nM.
In the case of `Cc1cn(C)c(=O)c(NC(=O)N[C@@H](CC(=O)O)c2cccc(-c3ccccc3)c2C)c1O` [1-500, sodium (S)-3-(3-(1,5-dimethyl-4-oxido-2-oxo-1,2-dihydropyridin-3-yl)ureido)-3-(2-methylbiphenyl-3-yl)propanoate], the IC50 is more than 200 nM.
Consider `COc1cccc(-c2cccc([C@H](CC(=O)O)NC(=O)Nc3c(O)ccn(C)c3=O)c2)c1` [1-501, sodium (S)-3-(3′-methoxybiphenyl-3-yl)-3-(3-(1-methyl-4-oxido-2-oxo-1,2-dihydropyridin-3-yl)ureido)propanoate], for which the concentration for half-maximal inhibition (IC50) is less than 20 nM.
The figure for `COc1ccc(OC)c(-c2cccc([C@H](CC(=O)O)NC(=O)Nc3c(O)c(C)cn(C)c3=O)c2)c1` [1-477, sodium (S)-3-(2′,5′-dimethoxybiphenyl-3-yl)-3-(3-(1,5-dimethyl-4-oxido-2-oxo-1,2-dihydropyridin-3-yl)ureido)propanoate] is less than 200 nM; for `COc1cccc(-c2ccc(F)c([C@H](CC(=O)O)NC(=O)Nc3c(O)ccn(C)c3=O)c2)c1` [1-593, sodium (S)-3-(4-fluoro-3′-methoxybiphenyl-3-yl)-3-(3-(1-methyl-4-oxido-2-oxo-1,2-dihydropyridin-3-yl)ureido)propanoate] it is less than 20 nM.
For `COc1cc(-c2cccc(OC(F)(F)F)c2)cc([C@H](CC(=O)O)NC(=O)Nc2c(O)cc(C)n(C)c2=O)c1` [1-568, sodium (S)-3-(3-(1,6-dimethyl-4-oxido-2-oxo-1,2-dihydropyridin-3-yl)ureido)-3-(5-methoxy-3′-(trifluoromethoxy)biphenyl-3-yl)propanoate] the value was less than 20 nM; for `Cc1cccc(C)c1-c1ccc(F)c([C@H](CC(=O)O)NC(=O)Nc2c(O)cc(C)n(C)c2=O)c1` [1-589, sodium (S)-3-(3-(1,6-dimethyl-4-oxido-2-oxo-1,2-dihydropyridin-3-yl)ureido)-3-(4-fluoro-2′,6′-dimethylbiphenyl-3-yl)propanoate], less than 20 nM; for `Cn1c(=O)c(NC(=O)N[C@@H](CC(=O)O)c2cccc(-c3ccc(F)cc3F)c2)c(O)c2sccc21` [1-515, sodium (S)-3-(2′,4′-difluorobiphenyl-3-yl)-3-(3-(4-methyl-7-oxido-5-oxo-4,5-dihydrothieno[3,2-b]pyridin-6-yl)ureido)propanoate], less than 20 nM.
The figure for `Cc1cn(C)c(=O)c(NC(=O)NC(CC(=O)O)c2cccc(-c3ccc(Cl)cc3)c2)c1O` (stereo not shown) [1-471, sodium 3-(4′-chlorobiphenyl-3-yl)-3-(3-(1,5-dimethyl-4-oxido-2-oxo-1,2-dihydropyridin-3-yl)ureido)propanoate] is less than 200 nM.
On to `COc1cccc(-c2cc([C@H](CC(=O)O)NC(=O)Nc3c(O)ccn(C)c3=O)ccc2OC)c1` [1-524, sodium (S)-3-(3′,6-dimethoxybiphenyl-3-yl)-3-(3-(1-methyl-4-oxido-2-oxo-1,2-dihydropyridin-3-yl)ureido)propanoate], for which the IC50 is less than 20 nM.
In the case of `Cn1ccc(O)c(NC(=O)N[C@@H](CC(=O)O)c2cccc(-c3cccs3)c2)c1=O` [1-532, sodium (S)-3-(3-(1-methyl-4-oxido-2-oxo-1,2-dihydropyridin-3-yl)ureido)-3-(3-(thiophen-2-yl)phenyl)propanoate], the IC50 is less than 20 nM.
The figure for `Cc1cn(C)c(=O)c(NC(=O)N[C@@H](CC(=O)O)c2cccc(-c3cccc(F)c3F)c2)c1O` [1-496, sodium (S)-3-(2′,3′-difluorobiphenyl-3-yl)-3-(3-(1,5-dimethyl-4-oxido-2-oxo-1,2-dihydropyridin-3-yl)ureido)propanoate] is less than 200 nM.
For `Cn1ccc(O)c(NC(=O)N[C@@H](CC(=O)O)c2cccc(-c3cnccn3)c2)c1=O` [15-2, sodium (S)-3-(3-(1-methyl-4-oxido-2-oxo-1,2-dihydropyridin-3-yl)ureido)-3-(3-(pyrazin-2-yl)phenyl)propanoate] the value was less than 20 nM.
As for `Cc1cc(O)c(NC(=O)N[C@@H](CC(=O)O)c2cc(-c3ccc(F)cc3F)cs2)c(=O)n1C` [1-552, sodium (S)-3-(4-(2,4-difluorophenyl)thiophen-2-yl)-3-(3-(1,6-dimethyl-4-oxido-2-oxo-1,2-dihydropyridin-3-yl)ureido)propanoate], the IC50 was less than 20 nM.
For `Cn1ccc(O)c(NC(=O)N[C@@H](CC(=O)O)c2ccc(-c3cccc(F)c3)s2)c1=O` [1-620, sodium (S)-3-(5-(3-fluorophenyl)thiophen-2-yl)-3-(3-(1-methyl-4-oxido-2-oxo-1,2-dihydropyridin-3-yl)ureido)propanoate] the value was less than 200 nM; for `COc1ccc([C@H](CC(=O)O)NC(=O)Nc2c(O)ccn(C)c2=O)cc1-c1ccccc1` [1-529, sodium (S)-3-(6-methoxybiphenyl-3-yl)-3-(3-(1-methyl-4-oxido-2-oxo-1,2-dihydropyridin-3-yl)ureido)propanoate], less than 20 nM; for `COc1cccc(-c2cc([C@H](CC(=O)O)NC(=O)Nc3c(O)ccn(C)c3=O)ccc2C)c1` [1-542, sodium (S)-3-(3′-methoxy-6-methylbiphenyl-3-yl)-3-(3-(1-methyl-4-oxido-2-oxo-1,2-dihydropyridin-3-yl)ureido)propanoate], less than 20 nM.
`Cc1cccc(C)c1-c1cc([C@H](CC(=O)O)NC(=O)Nc2c(O)cc(C)n(C)c2=O)ccc1F` [1-578, sodium (S)-3-(3-(1,6-dimethyl-4-oxido-2-oxo-1,2-dihydropyridin-3-yl)ureido)-3-(6-fluoro-2′,6′-dimethylbiphenyl-3-yl)propanoate]: the IC50 is less than 20 nM.
For `Cc1cc(-c2cccc([C@H](CC(=O)O)NC(=O)Nc3c(O)c(C)cn(C)c3=O)c2)ccc1F` [1-497, sodium (S)-3-(3-(1,5-dimethyl-4-oxido-2-oxo-1,2-dihydropyridin-3-yl)ureido)-3-(4′-fluoro-3′-methylbiphenyl-3-yl)propanoate] the value was less than 200 nM.
On to `COc1cc(-c2ccc(F)cc2F)cc([C@H](CC(=O)O)NC(=O)Nc2c(O)ccn(C)c2=O)c1` [1-566, sodium (S)-3-(2′,4′-difluoro-5-methoxybiphenyl-3-yl)-3-(3-(1-methyl-4-oxido-2-oxo-1,2-dihydropyridin-3-yl)ureido)propanoate], for which the IC50 was less than 20 nM.
For `Cn1c(=O)c(NC(=O)N[C@@H](CC(=O)O)c2cccc(-c3ccc(F)cc3F)c2)c(O)c2cccnc21` [1-526, sodium (S)-3-(2′,4′-difluorobiphenyl-3-yl)-3-(3-(1-methyl-4-oxido-2-oxo-1,2-dihydro-1,8-naphthyridin-3-yl)ureido)propanoate] the value was less than 200 nM; for `Cn1ccc(O)c(NC(=O)N[C@@H](CC(=O)O)c2cccc(-c3ccoc3)c2)c1=O` [1-559, sodium (S)-3-(3-(furan-3-yl)phenyl)-3-(3-(1-methyl-4-oxido-2-oxo-1,2-dihydropyridin-3-yl)ureido)propanoate], less than 20 nM.
For `COc1cccc(-c2cccc([C@H](CC(=O)O)NC(=O)Nc3c(O)c(C)cn(C)c3=O)c2)c1C` [1-489, sodium (S)-3-(3-(1,5-dimethyl-4-oxido-2-oxo-1,2-dihydropyridin-3-yl)ureido)-3-(3′-methoxy-2′-methylbiphenyl-3-yl)propanoate] the value was less than 200 nM.
Turning to `Cc1cn(C)c(=O)c(NC(=O)N[C@@H](CC(=O)O)c2cccc(-c3cccc(Cl)c3)c2)c1O` [1-499, sodium (S)-3-(3′-chlorobiphenyl-3-yl)-3-(3-(1,5-dimethyl-4-oxido-2-oxo-1,2-dihydropyridin-3-yl)ureido)propanoate], the IC50 is less than 20 nM.
